From US4396613A, “23-Ester derivatives of DMT and method of using same” (Eli Lilly and Company, priority 1981, dated 1983)
Values after ≈ are worked out from the molar mass of the structure shown.

Legend:
Assay type in all cases: cell-based
[1] = system: Staphylococcus aureus V41; assay: standard agar-dilution assay (MIC); conditions: Staphylococcus aureus V41, penicillin-resistant strain, unit assumed
Protocol: (§1) The MIC's in Table II were determined by standard agar-dilution assays. The MIC's in Table III were obtained using a conventional broth-dilution microtiter test.
^b Penicillinresistant strain

[2] = system: Streptococcus pneumoniae Park I; conditions: agar dilution, unit assumed
Protocol: as §1

Mycoplasma gallisepticum = assay: conventional broth-dilution microtiter test (MIC); conditions: unit assumed
Protocol: as §1

Staphylococcus aureus = assay: conventional broth-dilution microtiter test (MIC); conditions: unit assumed
Protocol: as §1

Mycoplasma synoviae = assay: conventional broth-dilution microtiter test (MIC); conditions: unit assumed
Protocol: as §1

[3] = system: Pasteurella multocida 60A; assay: conventional broth-dilution microtiter test (MIC); conditions: avian isolate, unit assumed
Protocol: as §1

Streptococcus sp. 80 = assay: conventional broth-dilution microtiter test (MIC); conditions: unit assumed
Protocol: as §1

Mycoplasma hyorhinis = assay: conventional broth-dilution microtiter test (MIC); conditions: unit assumed
Protocol: as §1

[4] = system: Pasteurella multocida 17E; assay: conventional broth-dilution microtiter test (MIC); conditions: bovine isolate, unit assumed
Protocol: as §1

Streptococcus Group 9960 = assay: standard agar-dilution assay (MIC); conditions: unit assumed
Protocol: as §1

[5] = system: Staphylococcus epidermidis EPI2; assay: standard agar-dilution assay (MIC); conditions: unit assumed
Protocol: as §1

[6] = system: Staphylococcus aureus X1.1; assay: standard agar-dilution assay (MIC); conditions: unit assumed
Protocol: as §1

[7] = system: Staphylococcus aureus S13E; assay: standard agar-dilution assay (MIC); conditions: unit assumed
Protocol: as §1

[8] = system: Haemophilus influenzae Holt; assay: standard agar-dilution assay (MIC); conditions: ampicillin-sensitive strain, unit assumed
Protocol: as §1

[9] = system: Haemophilus influenzae R252; assay: standard agar-dilution assay (MIC); conditions: Haemophilus influenzae R252, ampicillin-resistant strain, unit assumed
Protocol: as §1

[10] = system: Streptococcus Group D X66; assay: standard agar-dilution assay (MIC); conditions: unit assumed
Protocol: as §1

[11] = system: Streptococcus pyogenes C203; assay: standard agar-dilution assay (MIC); conditions: unit assumed
Protocol: as §1

[12] = system: Staphylococcus epidermidis EPI1; assay: standard agar-dilution assay (MIC); conditions: unit assumed
Protocol: as §1

[13] = system: Staphylococcus aureus X400; assay: standard agar-dilution assay (MIC); conditions: Staphylococcus aureus X400, methicillin-resistant strain, unit assumed
Protocol: as §1
^c Methicillinresistant-strain

| Structure (SMILES) | MIC [1] | MIC [2] | MIC (Mycoplasma gallisepticum) | MIC (Staphylococcus aureus) | MIC (Mycoplasma synoviae) | MIC [3] | MIC (Streptococcus sp. 80) | MIC (Mycoplasma hyorhinis) | MIC [4] | MIC (Streptococcus Group 9960) | MIC [5] | MIC [6] | MIC [7] | MIC [8] | MIC [9] | MIC [10] | MIC [11] | MIC [12] | MIC [13] |
| --- | --- | --- | --- | --- | --- | --- | --- | --- | --- | --- | --- | --- | --- | --- | --- | --- | --- | --- | --- |
| CCC1OC(=O)CC(O)C(C)C(OC2OC(C)C(OC3CC(C)(O)C(O)C(C)O3)C(N(C)C)C2OC(C)=O)C(CC=O)CC(C)C(=O)C=CC(C)=CC1COC(=O)n1ccnc1 (stereo not drawn) [Compound 21] | 2 mg/L (≈ 2.28 µM) | 0.125 mg/L (≈ 0.142 µM) | 0.78 mg/L (≈ 0.888 µM) | 6.25 mg/L (≈ 7.12 µM) | 0.78 mg/L (≈ 0.888 µM) | 12.5 mg/L (≈ 14.2 µM) | 0.78 mg/L (≈ 0.888 µM) | 1.56 mg/L (≈ 1.78 µM) | 12.5 mg/L (≈ 14.2 µM) | 1 mg/L (≈ 1.14 µM) | 2 mg/L (≈ 2.28 µM) | 1 mg/L (≈ 1.14 µM) | 1 mg/L (≈ 1.14 µM) | 16 mg/L (≈ 18.2 µM) | 8 mg/L (≈ 9.11 µM) | 2 mg/L (≈ 2.28 µM) | 0.5 mg/L (≈ 0.569 µM) | 2 mg/L (≈ 2.28 µM) | 2 mg/L (≈ 2.28 µM) |
| CCC1OC(=O)CC(O)C(C)C(OC2OC(C)C(OC3CC(C)(O)C(O)C(C)O3)C(N(C)C)C2OC(C)=O)C(CC=O)CC(C)C(=O)C=CC(C)=CC1COC(=O)C12CC3CC(CC(C3)C1)C2 (stereo not drawn) [Compound 23] | 2 mg/L (≈ 2.11 µM) | 1 mg/L (≈ 1.06 µM) | 6.25 mg/L (≈ 6.61 µM) | 6.25 mg/L (≈ 6.61 µM) | 1.56 mg/L (≈ 1.65 µM) | > 50 mg/L | < 0.78 mg/L | 25 mg/L (≈ 26.4 µM) | 50 mg/L (≈ 52.8 µM) | 4 mg/L (≈ 4.23 µM) | 4 mg/L (≈ 4.23 µM) | 2 mg/L (≈ 2.11 µM) | 2 mg/L (≈ 2.11 µM) | > 128 mg/L | > 128 mg/L | 4 mg/L (≈ 4.23 µM) | 2 mg/L (≈ 2.11 µM) | 2 mg/L (≈ 2.11 µM) | 2 mg/L (≈ 2.11 µM) |
| CCC(=O)OC1C(OC2C(CC=O)CC(C)C(=O)C=CC(C)=CC(COC(C)=O)C(CC)OC(=O)CC(O)C2C)OC(C)C(OC2CC(C)(O)C(O)C(C)O2)C1N(C)C (stereo not drawn) [Compound 6, 23-O-Acetyl-2'-O-propionyl-DMT] | 0.5 mg/L (≈ 0.595 µM) | 0.125 mg/L (≈ 0.149 µM) | 0.39 mg/L (≈ 0.464 µM) | 0.78 mg/L (≈ 0.929 µM) | 0.195 mg/L (≈ 0.232 µM) | 12.5 mg/L (≈ 14.9 µM) | 0.39 mg/L (≈ 0.464 µM) | 0.78 mg/L (≈ 0.929 µM) | 6.25 mg/L (≈ 7.44 µM) | 1 mg/L (≈ 1.19 µM) | 1 mg/L (≈ 1.19 µM) | 0.5 mg/L (≈ 0.595 µM) | 1 mg/L (≈ 1.19 µM) | 16 mg/L (≈ 19 µM) | 16 mg/L (≈ 19 µM) | 1 mg/L (≈ 1.19 µM) | 0.5 mg/L (≈ 0.595 µM) | 1 mg/L (≈ 1.19 µM) | 2 mg/L (≈ 2.38 µM) |
| CCC1OC(=O)CC(O)C(C)C(OC2OC(C)C(OC3CC(C)(O)C(O)C(C)O3)C(N(C)C)C2OC(C)=O)C(CC=O)CC(C)C(=O)C=CC(C)=CC1COC(=O)C=Cc1ccccc1 (stereo not drawn) [Compound 11] | 0.5 mg/L (≈ 0.547 µM) | 0.25 mg/L (≈ 0.273 µM) | 0.39 mg/L (≈ 0.427 µM) | 1.56 mg/L (≈ 1.71 µM) | 3.12 mg/L (≈ 3.41 µM) | > 50 mg/L | 0.78 mg/L (≈ 0.853 µM) | 6.25 mg/L (≈ 6.84 µM) | 12.5 mg/L (≈ 13.7 µM) | 2 mg/L (≈ 2.19 µM) | 4 mg/L (≈ 4.38 µM) | 1 mg/L (≈ 1.09 µM) | 1 mg/L (≈ 1.09 µM) | 128 mg/L (≈ 140 µM) | 128 mg/L (≈ 140 µM) | 2 mg/L (≈ 2.19 µM) | 1 mg/L (≈ 1.09 µM) | 1 mg/L (≈ 1.09 µM) | 2 mg/L (≈ 2.19 µM) |
| CCC1OC(=O)CC(O)C(C)C(OC2OC(C)C(OC3CC(C)(O)C(O)C(C)O3)C(N(C)C)C2O)C(CC=O)CC(C)C(=O)C=CC(C)=CC1COC(=O)Cc1ccccc1 (stereo not drawn) [Compound 10, 23-O-Phenylacetyl-DMT] | 0.5 mg/L (≈ 0.581 µM) | 0.03 mg/L (≈ 0.0349 µM) | ≤ 0.048 mg/L | 0.78 mg/L (≈ 0.907 µM) | ≤ 0.048 mg/L | 3.12 mg/L (≈ 3.63 µM) | 0.097 mg/L (≈ 0.113 µM) | 1.56 mg/L (≈ 1.81 µM) | 1.56 mg/L (≈ 1.81 µM) | 0.25 mg/L (≈ 0.291 µM) | 0.5 mg/L (≈ 0.581 µM) | 0.25 mg/L (≈ 0.291 µM) | 0.25 mg/L (≈ 0.291 µM) | 2 mg/L (≈ 2.33 µM) | 2 mg/L (≈ 2.33 µM) | 0.5 mg/L (≈ 0.581 µM) | 0.125 mg/L (≈ 0.145 µM) | 0.5 mg/L (≈ 0.581 µM) | 0.5 mg/L (≈ 0.581 µM) |
| CCC1OC(=O)CC(O)C(C)C(OC2OC(C)C(OC3CC(C)(O)C(O)C(C)O3)C(N(C)C)C2OC(C)=O)C(CC=O)CC(C)C(=O)C=CC(C)=CC1COC(=O)OC (stereo not drawn) [Compound 24] | 0.5 mg/L (≈ 0.594 µM) | 0.06 mg/L (≈ 0.0713 µM) | 0.78 mg/L (≈ 0.926 µM) | 3.12 mg/L (≈ 3.71 µM) | 0.78 mg/L (≈ 0.926 µM) | 12.5 mg/L (≈ 14.8 µM) | 0.78 mg/L (≈ 0.926 µM) | 1.56 mg/L (≈ 1.85 µM) | 6.25 mg/L (≈ 7.42 µM) | 0.5 mg/L (≈ 0.594 µM) | 0.5 mg/L (≈ 0.594 µM) | 0.5 mg/L (≈ 0.594 µM) | 0.5 mg/L (≈ 0.594 µM) | 16 mg/L (≈ 19 µM) | 8 mg/L (≈ 9.5 µM) | 0.5 mg/L (≈ 0.594 µM) | 0.25 mg/L (≈ 0.297 µM) | 0.5 mg/L (≈ 0.594 µM) | 0.5 mg/L (≈ 0.594 µM) |
